Measured values published in ChEMBL document CHEMBL3585314, “Initial development of a cytotoxic amino-seco-CBI warhead for delivery by prodrug systems” (Bioorg Med Chem, 2015).

Tests used:
Calf thymus DNA [1] = assay: Binding affinity to calf thymus DNA assessed as change in melting temperature treated with (5-amino-1-(chloromethyl)-1H-benzo[e]indol-3(2H)-yl)(5-(2-(dimethylamino)ethoxy)-1H-indol-2-yl)methanone at 0.2 equiv. per base pair at pH 7 after 1 hr by spectrometric analysis; assay type: nucleic-acid assay; settings: Bos taurus
Calf thymus DNA [2] = assay: Binding affinity to calf thymus DNA assessed as change in melting temperature at 6.9 DNA to compound ratio at pH 7.2 by spectrophotometric analysis; assay type: nucleic-acid assay; settings: Bos taurus
L1210 [3] = assay: Cytotoxicity against mouse L1210 cells after 3 days by coulter counter analysis; assay type: functional, cell-based; settings: L1210, 72 h
L1210 [4] = assay: Cytotoxicity against mouse L1210 cells; assay type: functional, cell-based
L1210 [5] = assay: Cytotoxicity against mouse L1210 cells after 24 hrs by MTT assay; assay type: functional, cell-based; settings: L1210, 24 h
LNCaP = assay: Cytotoxicity against human LNCAP cells assessed as inhibition of cell proliferation by MTS assay; assay type: functional, cell-based

SMILES: CN(C)CCOc1ccc2[nH]c(C(=O)N3CC4CC45C3=CC(=N)c3ccccc35)cc2c1 (configuration not stated)
- ΔTm (Calf thymus DNA [1]): 13 °C

SMILES: COc1c(O)c2c(c3cc(C(=O)N4CCc5c4c(O)c(OC)c4[nH]c(C(=O)N6C[C@H]7C[C@@]78C6=CC(=O)c6[nH]cc(C)c68)cc54)[nH]c13)CCN2C(N)=O [(+)-CC-1065]
- ΔTm (Calf thymus DNA [2]): 31 °C
- IC50 (L1210 [3]): 0.024 nM

SMILES: COC(=O)c1cc2c([nH]1)C(=O)C=C1N(C(=O)c3cc4cc(OC)c(OC)c(OC)c4[nH]3)CC3CC123 (configuration not stated) [DUOCARMYCIN SA]
- IC50 (L1210 [4]): 0.01 nM

SMILES: COc1cc2[nH]c(C(=O)N3C[C@H]4C[C@@]45C3=CC(=O)c3[nH]c(C(=O)N4CCc6c4c(O)c(OC)c4[nH]c(C(=O)SC)cc64)cc35)cc2cc1O
- IC50 (L1210 [5]): 0.005 nM

SMILES: CN(C)CCOc1ccc2[nH]c(C(=O)N3CC(CCl)c4c3cc(NC(=O)OC(C)(C)C)c3ccccc43)cc2c1 (configuration not stated)
- IC50 (LNCaP): 218 nM

SMILES: CN(C)CCOc1ccc2[nH]c(C(=O)N3CC(CCl)c4c3cc(N)c3ccccc43)cc2c1 (configuration not stated)
- IC50 (LNCaP): 18 nM
